Assay results published in ChEMBL document CHEMBL1201862, “PubChem BioAssay data set” (2004).
The source made the active and inactive calls. For most assays here, no stated cut-off is given here; in the data, actives have a measured EC50 and inactives only a lower limit.

Columns and labels:
[1] = Fluorescence-based cell-based high throughput dose response assay for inhibitors of the interaction of nucleotide-binding oligomerization domain containing 2 (NOD2) and the receptor-interacting serine-threonine kinase 2 (RIPK2).; format: functional; conditions: Homo sapiens
[2] = molecular target: T1, Hexokinase HKDC1 (Homo sapiens, UniProt Q2TB90); test: HKDC1 hexokinase inhibitors, dose response, biochemical, W721R variant (AID 504729); format: functional
T1 sequence (Q2TB90 whole entry): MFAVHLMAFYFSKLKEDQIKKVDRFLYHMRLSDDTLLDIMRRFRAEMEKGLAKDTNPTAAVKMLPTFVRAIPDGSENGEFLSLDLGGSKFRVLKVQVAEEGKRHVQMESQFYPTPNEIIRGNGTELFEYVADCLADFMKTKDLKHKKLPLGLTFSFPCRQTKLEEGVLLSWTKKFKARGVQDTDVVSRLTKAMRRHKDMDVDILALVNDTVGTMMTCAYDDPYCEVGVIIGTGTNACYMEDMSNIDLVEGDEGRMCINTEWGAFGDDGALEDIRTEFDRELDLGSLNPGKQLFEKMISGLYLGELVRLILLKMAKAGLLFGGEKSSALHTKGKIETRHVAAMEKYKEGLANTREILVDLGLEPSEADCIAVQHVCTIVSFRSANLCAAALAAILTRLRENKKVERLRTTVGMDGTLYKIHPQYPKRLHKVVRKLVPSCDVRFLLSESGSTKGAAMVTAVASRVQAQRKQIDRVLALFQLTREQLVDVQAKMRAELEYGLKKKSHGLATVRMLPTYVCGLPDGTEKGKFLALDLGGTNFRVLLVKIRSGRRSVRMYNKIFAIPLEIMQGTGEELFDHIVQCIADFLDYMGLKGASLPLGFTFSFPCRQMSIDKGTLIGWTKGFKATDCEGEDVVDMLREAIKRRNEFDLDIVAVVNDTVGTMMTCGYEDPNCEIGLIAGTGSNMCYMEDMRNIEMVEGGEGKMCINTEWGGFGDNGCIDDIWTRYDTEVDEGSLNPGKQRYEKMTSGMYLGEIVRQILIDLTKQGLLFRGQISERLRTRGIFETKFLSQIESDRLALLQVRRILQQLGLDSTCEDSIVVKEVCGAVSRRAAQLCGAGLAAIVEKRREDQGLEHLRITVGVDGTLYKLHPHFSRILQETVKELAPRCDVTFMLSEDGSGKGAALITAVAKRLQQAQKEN

[3] = tested on: BJ; test: cells; format: functional, cell-based; conditions: Homo sapiens
[4] = Luminescent dose response cell-based high throughput screening assay for inhibitors of the Janus kinase 2 mutant JAK2V617F. [Related pubchem assays: 1446 (Primary screen.), 1521 (Confirmation assay.), 1486 (Counter screen.)]; format: functional
[5] = tested on: BJ; test: cytotoxicity toward BJ-TERT fibroblasts, dose response, cell-based, RAS-independent, luminescence (AID 1933); format: functional; conditions: Homo sapiens
[6] = cytotoxicity toward DRD oncogenic fibroblasts, dose response, cell-based, non-viral oncogenic, luminescence (AID 1934); format: functional; conditions: Homo sapiens
[7] = tested on: Vero; test: cells; format: functional; conditions: Chlorocebus sabaeus
[8] = cells; format: functional, cell-based
[9] = cells; format: functional, cell-based; remark: listed apart in the source
[10] = tested on: BJ; test: cytotoxicity toward BJ-TERT-LT-ST fibroblasts, dose response, cell-based, RAS-independent, luminescence (AID 1935); format: functional; conditions: Homo sapiens;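 further: BJ fibroblasts immortalized with TERT plus LT and ST oncogenes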
[11] = molecular target: Ephrin type-A receptor 4 (Mus musculus, UniProt Q03137); test: inhibitors of EphA4 binding to KYL peptide, primary screen, biochemical, colorimetric, mouse EphA4 (AID 689); format: functional
Sequence of Ephrin type-A receptor 4 (Q03137 whole entry): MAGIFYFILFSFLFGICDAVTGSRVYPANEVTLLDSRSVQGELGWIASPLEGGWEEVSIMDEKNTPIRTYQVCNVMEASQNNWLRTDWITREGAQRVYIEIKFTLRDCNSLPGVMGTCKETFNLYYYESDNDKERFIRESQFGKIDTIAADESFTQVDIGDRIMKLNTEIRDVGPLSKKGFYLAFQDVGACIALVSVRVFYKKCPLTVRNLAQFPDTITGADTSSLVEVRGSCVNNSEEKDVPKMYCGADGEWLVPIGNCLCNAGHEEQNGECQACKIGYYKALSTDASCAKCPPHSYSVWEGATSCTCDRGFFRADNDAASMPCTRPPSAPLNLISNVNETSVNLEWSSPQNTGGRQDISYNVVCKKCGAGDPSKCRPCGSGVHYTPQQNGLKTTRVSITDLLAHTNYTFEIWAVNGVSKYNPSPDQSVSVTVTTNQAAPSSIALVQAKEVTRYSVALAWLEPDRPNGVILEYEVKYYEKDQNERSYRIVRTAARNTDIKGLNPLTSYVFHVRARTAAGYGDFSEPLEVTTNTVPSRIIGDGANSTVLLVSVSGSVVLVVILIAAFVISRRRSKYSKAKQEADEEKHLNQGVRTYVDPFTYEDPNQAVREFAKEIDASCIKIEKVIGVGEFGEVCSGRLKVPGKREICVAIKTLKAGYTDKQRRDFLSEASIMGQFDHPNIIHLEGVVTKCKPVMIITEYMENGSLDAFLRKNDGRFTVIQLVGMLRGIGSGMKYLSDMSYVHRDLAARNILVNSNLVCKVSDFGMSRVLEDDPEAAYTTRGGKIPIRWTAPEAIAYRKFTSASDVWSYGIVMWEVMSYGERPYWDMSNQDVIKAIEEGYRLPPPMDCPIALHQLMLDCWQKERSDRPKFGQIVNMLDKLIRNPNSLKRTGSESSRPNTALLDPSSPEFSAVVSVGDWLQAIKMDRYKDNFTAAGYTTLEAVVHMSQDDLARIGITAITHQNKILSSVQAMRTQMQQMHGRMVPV

Compound	IC50 [1]	IC50 [2]	EC50 [3]	IC50 [4]	EC50 [5]	EC50 [6]	CC50 [7]	EC50 [8]	EC50 [9]	EC50 [10]	IC50 [11]
Cc1nc([N+](=O)[O-])c(Br)n1Cc1ccc(Cl)c(Cl)c1	4.39 µM (active)	22.8 µM (inactive)	> 150 µM (not active)	0.542 µM (active)	9.74 µM (inconclusive)	9.66 µM (inconclusive)	17.5 µM (active)	> 350 µM (not active)	> 350 µM (not active)	> 150 µM (inconclusive)	–
Cc1ccc(C2=N/C(=C\c3cccs3)C(=O)N2Nc2ccccc2)cc1	–	–	–	–	–	–	–	–	–	–	2.91 µM (active)
